Measured values published in article PMC11647725, “Discovery of 4-(5-Membered)Heteroarylether-6-methylpicolinamide Negative Allosteric Modulators of Metabotropic Glutamate Receptor Subtype 5” (ACS Medicinal Chemistry Letters, 2024).

Key:
[1] = target: T1, CYP 2D6 (Homo sapiens, UniProt P10635); experiment: P450 inhibition in pooled human liver microsomes; type: in vitro ADME; conditions: pooled HLM, NADPH, CYP-specific probe substrates; listed as VU6043653
T1 construct: from tissue; host or cells: pooled human liver microsomes (per the earlier reading)

[2] = target: Androgen (Testosterone) (Homo sapiens, UniProt P10275); experiment: Lead Profiling Screen, Eurofins Panlabs; type: binding; conditions: hum, read-out: % inh at 10 μM
Text: (§1) Nonetheless, as a non-aryl/heterobiaryl acetylene mGlu5 NAM with an encouraging in vivo rodent PK profile, we wished to further assess VU6043653 as a novel chemotype. Therefore, we compared metabolites in multiple species to better understand species differences in clearance and metabolism. […] Consistent with the high plasma clearance observed in dogs, high turnover was observed more so in dog hepatocytes than any other species tested (see the Supporting Information for additional details and results). To further evaluate our novel chemotype, the off-target and safety/toxicity profiles for this compound were further investigated.
(§2) Table S2. Lead Profiling Screen – Eurofins Panlabs for VU6043653.
(§3) Assay Name Species % inh at 10 μM
(§4) Androgen (Testosterone) hum 75
(§5) Calcium Channel L-Type, Benzothiazepine rat 22
(§6) Calcium Channel L-Type, Dihydropyridine rat 1
(§7) Calcium Channel N-Type rat -8
(§8) Epidermal Growth Factor (EGF) hum -3
(§9) GABAA, Flunitrazepam, Central rat 0
(§10) GABAA, Muscimol, Central rat -5
(§11) Glutamate, Kainate rat -7
(§12) Glutamate, NMDA, Agonism rat 3
(§13) Glutamate, NMDA, Glycine rat -18
(§14) Glutamate, NMDA, Phencyclidine rat -4
(§15) Imidazoline I2, Central rat -1

[3] = target: Adenosine A3 (Homo sapiens, UniProt P0DMS8); experiment: Lead Profiling Screen, Eurofins Panlabs; type: binding; conditions: Adenosine A3, hum, read-out: % inh at 10 μM
Text: as §1, §2, §3, §4, §5, §6, §7, §8, §9, §10, §11, §12, §13, §14, §15

[4] = Intrinsic clearance in human liver microsomes; type: in vitro ADME
Protocol: Mean values for each species were calculated from 3 replicates.
Intrinsic Clearance in Rat and Human Liver Microsomes
The in vitro intrinsic clearance (CL int) was investigated in commercially obtained hepatic microsomes from rat and human donors using the substrate depletion (i.e., loss-of-parent vs. time, or t 1/2 method) approach with analyte detection via liquid chromatography-tandem mass spectrometry (LC-MS/MS). For each species, mean %parent remaining values at each time point were calculated from replicates raw data (analyte:IS peak area ratios) and used to determine in vitro t 1/2 and CLint.
Experiments were carried out using a robot-assisted (TECAN model Evo 200). Compound was incubated (1 µM final concentration) in buffer (100 mM potassium phosphate pH 7.4 with 3 mM MgCl2) containing hepatic microsomes (0.5 mg/mL final concentration) from multiple species, discretely, at 37 °C under constant orbital shaking. After 5 minutes (pre-incubation), reactions were initiated by addition of nicotinamide adenine dinucleotide phosphate (NADPH, 1 mM final concentration). At selected time intervals (0, 3, 7, 15, 25, and 45 minutes) post-addition of NADPH, aliquots (50 µL) were taken and placed into a 96-shallow-well plate containing ice cold acetonitrile (150 µL) with carbamazepine (IS, 50 nM). The plates were then centrifuged (3000 rcf at 4 °C) for 10 minutes. The supernatants were transferred to a new 96-shallow-well daughter plate and diluted (1:1 v/v) with water (Milli-Q filtered). The plates were then sealed in preparation for LC-MS/MS analysis (see below).
Raw LC-MS/MS peak area data generated from the assay samples were used to construct natural log-transformed %parent remaining vs. time plots (using t = 0 minute post-NADPH addition sample data as starting point set to 100%). In vitro compound half-life (t 1/2) values were obtained using the following […]
k is the slope from linear regression analysis of the natural log-transformed data (using means from Where all replicates at each time point). Resulting t 1/2 values were then used to calculate hepatic CLint values according to the following equation and with the use of species-specific scale-up factors for liver weight (grams) per total body weight (kg): […]
CLint = in vitro t1/2 x 0.5 mg microsomes x 1 gram liver x kg body wt aScale-up factors used are 45 (rat) and 20 (human).4
Predicted hepatic clearance (CLhep) was calculated using the following equation: […]
Qh represents hepatic blood flow (mL/min/kg): 21 for human, 70 for rat, and 90 for mouse.
Prepared samples were injected (10 µL each) onto an AB Sciex Triple Quad 4500 mass spectrometer system with an Agilent 1260 Infinity II pump and autosampler. Mass spectrometer conditions are described in Table S1. Quantitation of compounds was performed via AB Sciex Multiquant software using the raw analyte:IS peak area ratios. The typical detection range was 0.5 ng/mL to ≥ 5,000 ng/mL utilizing a quadratic equation regression with 1/x2 weighting.
Correction for dilution of all brain samples (in extraction buffer and subsequently in blank plasma, as previously described) was performed post-quantitation. The corrections for dilution in extraction buffer employed correction factors specific to each brain weight (not shown).

[5] = target: Opiate μ (OP3, MOP) (Homo sapiens, UniProt P35372); experiment: Lead Profiling Screen, Eurofins Panlabs; type: binding; conditions: hum, read-out: % inh at 10 μM
[6] = target: Endothelin ETA (Homo sapiens, UniProt P25101); experiment: Lead Profiling Screen, Eurofins Panlabs; type: binding; conditions: hum, read-out: % inh at 10 μM
Text: as §1, §2

[7] = target: Endothelin ETB (Homo sapiens, UniProt P24530); experiment: Lead Profiling Screen, Eurofins Panlabs; type: binding; conditions: hum, read-out: % inh at 10 μM
Text: as §1, §2

[8] = target: Adrenergic α1A (Homo sapiens, UniProt P35348); experiment: Lead Profiling Screen, Eurofins Panlabs; type: binding; conditions: hum, read-out: % inh at 10 μM
Text: as §1, §2

[9] = target: Adrenergic β2 (Homo sapiens, UniProt P07550); experiment: Lead Profiling Screen, Eurofins Panlabs; type: binding; conditions: Adrenergic β2, hum, read-out: % inh at 10 μM
Text: as §1, §2

[10] = target: Adenosine A1 (Homo sapiens, UniProt P30542); experiment: Lead Profiling Screen, Eurofins Panlabs; type: binding; conditions: Adenosine A1, hum, read-out: % inh at 10 μM
Text: as §1, §2

[11] = target: Estrogen Erα (Homo sapiens, UniProt P03372); experiment: Lead Profiling Screen, Eurofins Panlabs; type: binding; conditions: hum, read-out: % inh at 10 μM
Text: as §1, §2

[12] = target: Histamine H3 (Homo sapiens, UniProt Q9Y5N1); experiment: Lead Profiling Screen, Eurofins Panlabs; type: binding; conditions: Histamine H3, hum, read-out: % inh at 10 μM
Text: as §1, §2

[13] = target: Dopamine D3 (Homo sapiens, UniProt P35462); experiment: Lead Profiling Screen, Eurofins Panlabs; type: binding; conditions: Dopamine D3, hum, read-out: % inh at 10 μM
Text: as §1, §2

[14] = target: Bradykinin B2 (Homo sapiens, UniProt P30411); experiment: Lead Profiling Screen, Eurofins Panlabs; type: binding; conditions: Bradykinin B2, hum, read-out: % inh at 10 μM
Text: as §1, §2

[15] = target: Histamine H2 (Homo sapiens, UniProt P25021); experiment: Lead Profiling Screen, Eurofins Panlabs; type: binding; conditions: Histamine H2, hum, read-out: % inh at 10 μM
Text: as §1, §2

[16] = target: Histamine H1 (Homo sapiens, UniProt P35367); experiment: Lead Profiling Screen, Eurofins Panlabs; type: binding; conditions: Histamine H1, hum, read-out: % inh at 10 μM
Text: as §1, §2

T1 sequence (P10635 whole entry): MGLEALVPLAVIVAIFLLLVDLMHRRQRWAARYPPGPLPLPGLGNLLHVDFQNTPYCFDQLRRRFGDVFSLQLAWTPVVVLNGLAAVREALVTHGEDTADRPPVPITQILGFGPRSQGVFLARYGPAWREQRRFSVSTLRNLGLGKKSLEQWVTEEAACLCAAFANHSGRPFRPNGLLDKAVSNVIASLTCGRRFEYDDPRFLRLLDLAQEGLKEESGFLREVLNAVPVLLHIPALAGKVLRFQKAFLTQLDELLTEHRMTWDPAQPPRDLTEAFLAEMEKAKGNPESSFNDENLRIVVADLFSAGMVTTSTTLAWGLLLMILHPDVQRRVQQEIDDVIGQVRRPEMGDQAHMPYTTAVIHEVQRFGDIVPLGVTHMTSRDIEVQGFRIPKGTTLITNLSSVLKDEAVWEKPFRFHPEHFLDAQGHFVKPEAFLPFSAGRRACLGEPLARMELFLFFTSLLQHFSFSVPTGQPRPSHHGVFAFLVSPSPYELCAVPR
Chain of Bradykinin B2 (P30411 whole entry): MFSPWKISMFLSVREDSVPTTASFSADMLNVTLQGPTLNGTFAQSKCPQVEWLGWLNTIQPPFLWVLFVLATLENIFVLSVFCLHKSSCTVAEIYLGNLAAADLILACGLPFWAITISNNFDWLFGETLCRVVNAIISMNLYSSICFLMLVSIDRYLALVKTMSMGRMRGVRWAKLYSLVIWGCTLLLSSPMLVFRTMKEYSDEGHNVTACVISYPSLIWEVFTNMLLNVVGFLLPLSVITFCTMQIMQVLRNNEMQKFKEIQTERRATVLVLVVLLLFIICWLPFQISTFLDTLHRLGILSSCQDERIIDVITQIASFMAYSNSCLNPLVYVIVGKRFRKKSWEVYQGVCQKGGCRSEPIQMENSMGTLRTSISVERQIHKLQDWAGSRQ
Chain of Histamine H1 (P35367 whole entry): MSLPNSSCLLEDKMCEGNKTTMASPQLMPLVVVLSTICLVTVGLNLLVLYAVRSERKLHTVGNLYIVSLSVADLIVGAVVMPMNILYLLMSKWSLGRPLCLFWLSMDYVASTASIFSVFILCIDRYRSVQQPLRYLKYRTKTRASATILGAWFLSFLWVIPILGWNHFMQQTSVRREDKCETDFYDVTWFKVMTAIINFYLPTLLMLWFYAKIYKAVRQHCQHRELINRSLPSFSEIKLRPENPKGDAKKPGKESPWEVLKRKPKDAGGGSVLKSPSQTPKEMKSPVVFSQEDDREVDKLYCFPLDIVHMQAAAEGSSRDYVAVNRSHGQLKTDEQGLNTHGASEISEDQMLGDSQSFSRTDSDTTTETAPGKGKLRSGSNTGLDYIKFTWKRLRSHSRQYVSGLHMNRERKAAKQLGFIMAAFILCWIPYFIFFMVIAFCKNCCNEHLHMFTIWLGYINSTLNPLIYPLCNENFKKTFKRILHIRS
Chain of Dopamine D3 (P35462 whole entry): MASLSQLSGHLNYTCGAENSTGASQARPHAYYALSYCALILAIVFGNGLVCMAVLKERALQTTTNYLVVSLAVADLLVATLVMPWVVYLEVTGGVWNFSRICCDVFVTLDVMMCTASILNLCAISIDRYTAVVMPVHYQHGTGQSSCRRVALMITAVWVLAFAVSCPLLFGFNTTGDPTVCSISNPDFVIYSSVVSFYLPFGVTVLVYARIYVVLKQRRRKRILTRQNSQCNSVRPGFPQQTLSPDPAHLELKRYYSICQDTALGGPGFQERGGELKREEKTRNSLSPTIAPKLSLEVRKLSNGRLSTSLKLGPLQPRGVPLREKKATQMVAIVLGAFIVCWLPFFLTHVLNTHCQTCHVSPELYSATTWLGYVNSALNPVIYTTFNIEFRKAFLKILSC
Chain of Endothelin ETA (P25101 21-427): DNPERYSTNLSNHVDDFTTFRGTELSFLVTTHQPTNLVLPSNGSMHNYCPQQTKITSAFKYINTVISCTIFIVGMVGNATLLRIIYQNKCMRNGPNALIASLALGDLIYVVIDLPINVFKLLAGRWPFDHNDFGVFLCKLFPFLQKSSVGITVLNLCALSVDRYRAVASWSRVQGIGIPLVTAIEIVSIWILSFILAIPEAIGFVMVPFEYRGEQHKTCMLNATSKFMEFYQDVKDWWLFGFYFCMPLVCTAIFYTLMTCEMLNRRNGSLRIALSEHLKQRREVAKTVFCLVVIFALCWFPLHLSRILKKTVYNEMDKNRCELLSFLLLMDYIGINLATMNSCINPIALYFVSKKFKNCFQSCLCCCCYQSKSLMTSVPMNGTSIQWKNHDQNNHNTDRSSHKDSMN
Chain of Histamine H2 (P25021 whole entry): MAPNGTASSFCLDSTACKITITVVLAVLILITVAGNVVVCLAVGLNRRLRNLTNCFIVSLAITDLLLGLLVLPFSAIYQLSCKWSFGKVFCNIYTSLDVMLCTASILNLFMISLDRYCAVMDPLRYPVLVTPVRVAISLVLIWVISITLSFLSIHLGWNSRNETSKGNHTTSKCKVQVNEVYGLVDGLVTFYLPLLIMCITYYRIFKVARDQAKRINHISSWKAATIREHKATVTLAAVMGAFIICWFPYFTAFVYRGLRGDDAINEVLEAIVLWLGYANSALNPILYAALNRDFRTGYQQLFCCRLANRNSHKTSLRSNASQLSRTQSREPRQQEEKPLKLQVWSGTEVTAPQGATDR
Chain of Adrenergic α1A (P35348 whole entry): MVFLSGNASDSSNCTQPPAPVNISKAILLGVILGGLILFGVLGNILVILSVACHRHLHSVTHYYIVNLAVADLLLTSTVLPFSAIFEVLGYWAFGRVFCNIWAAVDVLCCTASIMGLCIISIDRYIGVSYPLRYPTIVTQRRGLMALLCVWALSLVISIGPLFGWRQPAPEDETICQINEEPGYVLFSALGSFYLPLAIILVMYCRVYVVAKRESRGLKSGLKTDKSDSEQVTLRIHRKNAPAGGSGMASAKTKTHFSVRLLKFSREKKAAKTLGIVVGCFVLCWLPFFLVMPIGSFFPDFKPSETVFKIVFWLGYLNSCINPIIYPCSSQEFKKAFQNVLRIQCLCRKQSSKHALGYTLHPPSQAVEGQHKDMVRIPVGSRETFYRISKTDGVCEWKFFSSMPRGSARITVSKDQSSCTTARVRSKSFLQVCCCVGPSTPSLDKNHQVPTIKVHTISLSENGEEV
Chain of Histamine H3 (Q9Y5N1 whole entry): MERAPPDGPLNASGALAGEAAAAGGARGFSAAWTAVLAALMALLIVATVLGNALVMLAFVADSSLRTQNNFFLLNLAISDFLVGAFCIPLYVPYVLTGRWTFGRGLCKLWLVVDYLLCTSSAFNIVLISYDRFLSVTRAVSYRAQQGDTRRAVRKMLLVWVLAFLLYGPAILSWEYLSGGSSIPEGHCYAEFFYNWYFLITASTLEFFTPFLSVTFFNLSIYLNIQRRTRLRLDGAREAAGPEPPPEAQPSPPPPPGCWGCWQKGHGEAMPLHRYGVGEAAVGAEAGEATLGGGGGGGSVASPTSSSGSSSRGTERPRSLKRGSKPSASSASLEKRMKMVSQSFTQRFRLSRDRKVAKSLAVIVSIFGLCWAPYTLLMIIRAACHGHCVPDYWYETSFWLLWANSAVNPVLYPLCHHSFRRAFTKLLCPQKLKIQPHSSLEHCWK
Chain of Androgen (Testosterone) (P10275 whole entry): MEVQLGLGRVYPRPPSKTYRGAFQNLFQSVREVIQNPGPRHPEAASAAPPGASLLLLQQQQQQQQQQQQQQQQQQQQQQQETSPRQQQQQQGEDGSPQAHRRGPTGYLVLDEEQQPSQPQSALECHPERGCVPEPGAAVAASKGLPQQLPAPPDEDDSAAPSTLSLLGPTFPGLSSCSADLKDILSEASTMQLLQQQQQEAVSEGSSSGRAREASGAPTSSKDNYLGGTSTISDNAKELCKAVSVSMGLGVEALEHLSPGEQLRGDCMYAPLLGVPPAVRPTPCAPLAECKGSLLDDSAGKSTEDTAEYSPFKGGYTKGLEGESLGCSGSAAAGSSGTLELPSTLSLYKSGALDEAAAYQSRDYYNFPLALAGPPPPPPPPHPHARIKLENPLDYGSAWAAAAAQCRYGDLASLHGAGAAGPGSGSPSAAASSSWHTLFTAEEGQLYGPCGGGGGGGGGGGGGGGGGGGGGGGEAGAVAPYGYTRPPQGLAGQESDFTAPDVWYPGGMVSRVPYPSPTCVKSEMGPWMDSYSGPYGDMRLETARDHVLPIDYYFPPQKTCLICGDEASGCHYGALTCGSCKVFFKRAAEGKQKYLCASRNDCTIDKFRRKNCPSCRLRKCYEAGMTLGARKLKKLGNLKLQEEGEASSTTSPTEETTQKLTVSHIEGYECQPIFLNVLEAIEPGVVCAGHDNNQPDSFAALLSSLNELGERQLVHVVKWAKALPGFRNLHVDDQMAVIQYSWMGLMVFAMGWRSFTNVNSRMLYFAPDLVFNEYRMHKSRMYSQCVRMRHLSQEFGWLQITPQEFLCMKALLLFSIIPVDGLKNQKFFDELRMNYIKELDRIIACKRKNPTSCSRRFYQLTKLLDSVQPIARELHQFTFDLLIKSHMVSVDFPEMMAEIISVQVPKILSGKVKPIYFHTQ
Chain of Adenosine A3 (P0DMS8 whole entry): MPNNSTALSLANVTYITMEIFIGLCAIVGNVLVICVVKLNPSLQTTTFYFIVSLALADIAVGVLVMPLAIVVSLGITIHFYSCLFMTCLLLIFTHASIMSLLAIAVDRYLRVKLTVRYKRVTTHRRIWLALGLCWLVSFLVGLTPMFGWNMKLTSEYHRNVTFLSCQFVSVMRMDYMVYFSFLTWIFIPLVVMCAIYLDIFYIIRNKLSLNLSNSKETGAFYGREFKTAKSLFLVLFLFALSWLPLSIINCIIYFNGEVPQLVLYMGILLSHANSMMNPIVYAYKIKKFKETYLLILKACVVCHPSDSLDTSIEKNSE

## Cc1cc(Oc2cnn(C)c2)cc(C(=O)Nc2ccc(F)cn2)n1 [22iA]
[1]
  IC50: ≥ 30 µM
[2]
  inhibition at 10 µM: ≥ 70%
[3]
  inhibition at 10 µM: ≥ 70%
[4]; pH 7.4, human liver microsomes
  CLint scaled at 40 min, 1 µM: 9 mL/min/kg
[4]; predicted hepatic clearance based on microsomal CLint
  CLhep, human: 6 mL/min/kg
[5]
  inhibition at 10 µM: 9%
[6]
  inhibition at 10 µM: -2%
[7]
  inhibition at 10 µM: -13%
[8]
  inhibition at 10 µM: 0%
[9]
  inhibition at 10 µM: -5%
[10]
  inhibition at 10 µM: 20%
[11]
  inhibition at 10 µM: 4%
[12]
  inhibition at 10 µM: 5%
[13]
  inhibition at 10 µM: -6%
[14]
  inhibition at 10 µM: 1%
[15]
  inhibition at 10 µM: -4%
[16]
  inhibition at 10 µM: 24%
